From ChEMBL document CHEMBL3046274, “Toxicity of imidacloprid to developmental stages of Rhynchophorus ferrugineus (Curculionidae: Coleoptera): Laboratory and field tests” (Crop Prot, 2006) come the findings set out here.

Common to all, as to type: ADME
Data set [1] concerns Gomar. The experiment in a line: Drug uptake in Phoenix dactylifera (date palm) gomar at 2.5 ml/l at 20 days post-treatment by UV spectrophotometric analysis. The following applies: 480 h.
For data set [2], the system named is Pinnae. Nature of the data set: Drug uptake in Phoenix dactylifera (date palm) pinnae at 2.5 ml/l at 20 days post-treatment by UV spectrophotometric analysis. The following applies: 480 h.
Data set [3] concerns Pinnae. The experiment in a line: Drug uptake in Phoenix dactylifera (date palm) pinnae at 2.5 ml/l at 10 days post-treatment by UV spectrophotometric analysis. The following applies: 240 h.
In data set [4] the test system is Gomar. The experiment in a line: Drug uptake in Phoenix dactylifera (date palm) gomar at 2.5 ml/l at 10 days post-treatment by UV spectrophotometric analysis. The following applies: 240 h.
Data set [5] relates to Root. The experiment in a line: Drug uptake in Phoenix dactylifera (date palm) roots at 2.5 ml/l at 20 days post-treatment by UV spectrophotometric analysis. Particulars: 480 h.
In data set [6] the test system is Leaf base. The experiment in a line: Drug uptake in Phoenix dactylifera (date palm) leaf base at 2.5 ml/l at 20 days post-treatment by UV spectrophotometric analysis. Particulars: 480 h.
Data set [7] has as its system Root. Nature of the data set: Drug uptake in Phoenix dactylifera (date palm) roots at 2.5 ml/l at 10 days post-treatment by UV spectrophotometric analysis. The following applies: 240 h.
Data set [8] relates to Rachis. The experiment in a line: Drug uptake in Phoenix dactylifera (date palm) rachis at 2.5 ml/l at 20 days post-treatment by UV spectrophotometric analysis. The following applies: 480 h.
Data set [9] deals with Leaf base. Nature of the data set: Drug uptake in Phoenix dactylifera (date palm) leaf base at 2.5 ml/l at 10 days post-treatment by UV spectrophotometric analysis. The following applies: 240 h.
For data set [10], the system named is Rachis. The experiment in a line: Drug uptake in Phoenix dactylifera (date palm) rachis at 2.5 ml/l at 10 days post-treatment by UV spectrophotometric analysis. Particulars: 240 h.

Take `O=[N+]([O-])NC1=NCCN1Cc1ccc(Cl)nc1` [IMIDACLOPRID]: the Drug uptake turned out to be 0.33 ppm in the data set on Gomar [1]; 1.21 ppm with Pinnae [2]; 0.32 ppm with Pinnae [3]; 0.46 ppm with Gomar [4]; 0.18 ppm in the data set with Root [5]; 0.38 ppm in the data set with Leaf base [6]. Further, the Drug uptake in the data set with Root [7] worked out at 0.41 ppm; in the data set on Rachis [8] it was 1.11 ppm; with Leaf base [9], 0.51 ppm; in the data set on Rachis [10], 1.31 ppm.
